Where only a bound is given, the exact number is not on record here.

Data set [1] relates to SW948. Nature of the data set: Cell proliferation assay, SW948. The conditions noted are these: Homo sapiens; SW948, 72 h, SRB assay. The format is cell-based. The protocol:
(§1) Cytotoxic/proliferation effects were determined using the sulforhodamine B (SRB) assay (Skehan et al., [1990]) or by resazurin. Briefly, cells in logarithmic growth phase were transferred to 96 well flat bottom plates with lids. One-hundred microliter cell suspensions containing 1500–5000 viable cells were plated into each well and incubated overnight prior to exposure with increasing concentrations of PF-309 for 3–5 days, dependent upon cell type. Media was removed and cells were fixed with cold 10% trichloroacetic acid for 30 min at 4°C. Cells were then washed with water and stained with 0.4% SRB (Fisher Sci., Pittsburgh, PA, USA) for 30 min at room temperature, washed again with 1% acetic acid, followed by stain solubilization with 10 mM tris at room temperature. The plate was then read on a plate reader (Biotek Synergy 2, Winooski, VT, USA) set at an absorbance wavelength of 565 nm. Cell proliferation curves were derived from the raw absorbance (OD) data.
(§2) Since PF-309 appeared to be a strong P-gp and BCRP substrates, we sought to evaluate if the transporters influenced sensitivity in vitro. We evaluated the sensitivity of CRC cell lines to PF-309 treatment in a panel of 27 lines. Cells were exposed to PF-309 at a range of concentrations for 72 h and cell content measured by SRB assay (see Pitts et al., [2013]). […]
In general terms: In SRB staining, fixed cells bind dye roughly in proportion to their protein.

For data set [2], the system named is SW620. Put plainly: Cell proliferation assay, SW620. The class given is cell-based. The conditions noted are these: Homo sapiens, SW-620; SW620, 72 h, SRB assay. How it is done: as §1, §2
Data set [3] deals with SW1116. Put plainly: Cell proliferation assay, SW1116. The format is cell-based. The following applies: Homo sapiens, SW 1116; SW1116, 72 h, SRB assay. The protocol:
as §1, §2

In data set [4] the test system is RKO. Put plainly: Cell proliferation assay, RKO. The format is cell-based. The conditions noted are these: Homo sapiens, 72 h, SRB assay. The protocol: as §1, §2
Data set [5] concerns CRC, breast, and non-small cell lung cancer cell lines. Put plainly: Proliferation by resazurin, expanded panel of 71 cell lines. The following applies: Homo sapiens, printed over a group of bars, cell lines covered not named. The format is cell-based. The protocol:
as §1, §2

Data set [6] deals with SW48. Put plainly: Cell proliferation assay, SW48. The format is cell-based. The conditions noted are these: Homo sapiens; SW48, 72 h, SRB assay. How it is done: as §1, §2
The subject of data set [7] is NCIH508. Put plainly: Cell proliferation assay, NCIH508. The class given is cell-based. The following applies: Homo sapiens, NCI-H508; NCIH508, 72 h, SRB assay. How it is done: as §1, §2
Data set [8] has as its system COLO205. Put plainly: Cell proliferation assay, COLO205. The class given is cell-based. The conditions noted are these: Homo sapiens, COLO 205; COLO205, 72 h, SRB assay. The protocol:
as §1, §2

Data set [9] concerns HCT116. Nature of the data set: Cell proliferation assay, HCT116. The format is cell-based. The conditions noted are these: Homo sapiens, HCT-116; HCT116, 72 h, SRB assay. How it is done: as §1, §2
The subject of data set [10] is CUCRC036 CRC PDTX model. Nature of the data set: Patient derived tumor xenograft efficacy, CUCRC036. The class given is in vivo, mice. The conditions noted are these: 25 mg/kg orally twice daily, 22–56 days, end of study tumor volumes. How it is done:
For patient tumor xenografts, surgical specimens of patients undergoing either removal of a primary or metastatic tumor at the University of Colorado Hospital are implanted subcutaneously into five mice for each patient with a 10-G trochar. After a subsequent growth and passage in mice, tumors are excised, and expanded into cohorts for treatment (n = 6–15 per group). Mice were treated with PF-309 or vehicle (0.5% methylcellulose) for 22–56 days (until control tumor volume reach ∼1500 mm^3) twice daily (BID) by oral gavage (PO). Monitoring of mice and measurements of tumors were conducted as described above. % Growth Inhibition= (average control volume−average treated volume)/average control volume×100% In addition to the cell line xenografts, we also treated 12 different patient derived tumor xenograft (PDTX) CRC models with PF-309 (Figure 6). We were unable to assess how ABCB1 gene expression correlated with efficacy in these models. The PDTX models are propagated in vivo, are not immortalized, and are not grown in in vitro culture. […] Tumor and plasma sample pairs were collected from animals at the end of study for eight tumor models (three cell line xenografts and five PDTX models) and concentrations of PF-309 were measured. […]
Background: In xenograft studies the graft and the host belong to different species.

The target in data set [11] is T1, BCRP (Homo sapiens, UniProt Q9UNQ0).
T1 construct: expressed in transfected cells; host or cells: BCRP-MDCKII-LE cells (canine MDCKII subpopulation with low endogenous P-gp)
Put plainly: BCRP-MDCKII-LE transwell assay (BCRP efflux). The format is in vitro ADME. The arrangement: A → B: scale not given here. The protocol:
Permeability and transporter substrate assays were performed as previously published (Feng et al., [2008]; Callegari et al., [2011]; Di et al., [2011]). Permeability assays were conducted in MDCKII-LE cells, which were generated by isolation of a subpopulation of cells with low expression of endogenous P-gp (Feng et al., [2008]; Callegari et al., [2011]; Di et al., [2011]). The use of MDCKII-LE cells are used to measure the passive permeability of compounds in place of MDCK wild-type or Caco-2 cells since both MDCK wild-type and Caco-2 cells are known to have some level of endogenous transporter expression which can affect the permeability measurement. P-gp efflux was determined in MDR1-MDCK cells and BCRP efflux was measured in BCRP-MDCKII-LE cells.
MDR1-MDCK and BCRP-MDCKII-LE transwell assays measure the effect of P-gp and BCRP, respectively, on transcellular flux. The efflux ratio, ratio of the B → A flux to the A → B flux, of PF-309 was measured to be 34.9 ± 7.9 in the MDR1-MDCK assay, indicating it is a strong substrate for P-gp. PF-309 was also determined to be substrate for BCRP as the efflux ratio was measured to be 7.6 ± 1.1. As a reference, compounds with efflux ratios >2 are considered to be substrates (Callegari et al., [2011]).

T1 sequence (Q9UNQ0 whole entry): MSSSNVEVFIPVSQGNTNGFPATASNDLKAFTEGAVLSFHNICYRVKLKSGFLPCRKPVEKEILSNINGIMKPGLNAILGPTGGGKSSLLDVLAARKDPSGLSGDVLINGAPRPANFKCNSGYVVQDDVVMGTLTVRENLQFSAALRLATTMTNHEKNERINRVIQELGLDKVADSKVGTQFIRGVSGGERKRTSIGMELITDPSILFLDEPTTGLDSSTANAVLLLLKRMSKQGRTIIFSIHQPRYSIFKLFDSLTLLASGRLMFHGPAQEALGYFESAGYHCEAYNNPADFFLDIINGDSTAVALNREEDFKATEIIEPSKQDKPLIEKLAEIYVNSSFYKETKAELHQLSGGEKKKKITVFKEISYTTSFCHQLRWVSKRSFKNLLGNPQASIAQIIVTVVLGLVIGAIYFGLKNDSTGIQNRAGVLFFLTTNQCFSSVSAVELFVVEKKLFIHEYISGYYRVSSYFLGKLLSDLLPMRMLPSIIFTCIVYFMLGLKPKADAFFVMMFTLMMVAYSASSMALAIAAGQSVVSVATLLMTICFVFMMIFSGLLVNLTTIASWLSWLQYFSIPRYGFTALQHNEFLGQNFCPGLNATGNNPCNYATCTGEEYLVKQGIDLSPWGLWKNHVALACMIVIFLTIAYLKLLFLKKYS

`Cc1nc(Nc2n[nH]c3c2CN(C(=O)N[C@H](CN(C)C)c2ccccc2)C3(C)C)c2sccc2n1` [PF-309]: the IC50 (in general, the concentration that gives 50% inhibition) in [1] is more than 1000 nM; in data set [2], 5 ± 3.1 nM; in data set [3], more than 1000 nM; in data set [4] it was 3.6 ± 0.1 nM; in data set [5] it was more than 100 nM; in data set [6] it was 11.9 ± 4.4 nM. Besides, the IC50 was more than 1000 nM in [7], 4.2 ± 1.4 nM in data set [8] and 4.7 ± 0.9 nM in data set [9]. Besides, the “% Growth inhibition” value in [10] is 35%. In addition, the efflux ratio (usually the permeability from basolateral to apical divided by that in the opposite direction, in the common usage) in [11] (dog, ratio of B → A flux to A → B flux, >2 = substrate) was found to be 7.6. The “A → B” value in [11] (transwell flux) was “;1.4 ± 0.1 cm/s”.

(Values after paper PMC3605511, “Tumor P-Glycoprotein Correlates with Efficacy of PF-3758309 in in vitro and in vivo Models of Colorectal Cancer” (Frontiers in Pharmacology, 2013).)
